Results as given in patent publication US6709647B2, “Antimicrobial deodorant compositions” (Unilever Home & Personal Care USA, a division of Conopco, …, priority 2001, dated 2004).

Assays:
[1] = tested on: Staphylococcus epidermidis; test: Cell suspension kill test in MES buffer, quench, plate count; assay type: cell-based; details: 50 mM MES pH 6.5; for Bacterial no. After 60 mins. / Bacterial no. Immediate: S. epidermidis suspension, amounts in weight %; for Bacterial no. Immediate: sample removed immediately; for Reduction in bacterial no. / Bacterial no. (concentration of bacteria remaining after 60 minutes): S. epidermidis; for Reduction in bacterial no.: amounts in mM; for Bacterial no. (concentration of bacteria remaining after 60 minutes): Table 6, percarbonate
Description: A cell suspension of Staphylococcus epidermidis in 50 mM MES buffer (2-[N-morpholino]ethanesulfonic acid, Sigma M5287) was prepared to an OD600 nm of 0.022 and equal portions were treated with the components indicated in Table 3, to give the weight percentages also indicated. Samples were removed immediately and after 60 minutes; said samples being decimally diluted in a quench solution (vide infra) and then plated onto a suitable culture medium. The plates were incubated at 37° C. for 48 hours, then read and the bacterial numbers calculated.
The quench solution used was a solution of:
in 37.5 mM phosphate buffer, at pH 7.9, containing 0.05% v/v Triton X-100 (iso-octyl phenoxy polyoxyethanol).
In this Table, the amounts indicated are milliMolar concentrations and the antimicrobial effect is expressed in terms of the reduction in bacterial numbers achieved.
In these Tables, the amounts indicated are milliMolar concentrations and the antimicrobial effect is expressed in terms of the concentration of bacteria remaining after 60 minutes.

Corynebacteria = test: Cell suspension kill test in MES buffer, quench, plate count (Corynebacteria); assay type: cell-based; details: amounts in mM; for Bacterial no. After 60 mins.: 50 mM MES pH 6.5, after 60 minutes; for Bacterial no. Immediate: 50 mM MES pH 6.5, sample removed immediately
Description: A cell suspension of Staphylococcus epidermidis in 50 mM MES buffer (2-[N-morpholino]ethanesulfonic acid, Sigma M5287) was prepared to an OD600 nm of 0.022 and equal portions were treated with the components indicated in Table 3, to give the weight percentages also indicated. […] The plates were incubated at 37° C. for 48 hours, then read and the bacterial numbers calculated. The quench solution used was a solution of: in 37.5 mM phosphate buffer, at pH 7.9, containing 0.05% v/v Triton X-100 (iso-octyl phenoxy polyoxyethanol). An analogous experiment to that performed with Example 3, with the modification of using Corynebacteria rather than S. epidermidis, was performed with the components indicated in Table 5. In this Table, the amounts indicated are milliMolar concentrations and the effect is expressed as in Table 3.

Compound | Reduction in bacterial no. [1] [Log10cfu/ml] | Bacterial no. After 60 mins. (Corynebacteria) [Log10cfu/ml] | Bacterial no. Immediate (Corynebacteria) [Log10cfu/ml] | further results
O=C(O)c1ccccn1 [D, Picolinic acid] |  |  |  | Bacterial no. After 60 mins. [1]: 6.50 Log10cfu/ml; Bacterial no. Immediate [1]: 6.60 Log10cfu/ml
O=C(CCCCCN1C(=O)c2ccccc2C1=O)OO [Example E, phthalimidoperoxy hexanoic acid] |  |  |  | Bacterial no. After 60 mins. [1]: 6.50 Log10cfu/ml; Bacterial no. Immediate [1]: 6.47 Log10cfu/ml
O=C(O)c1ccccn1 [Example F, Picolinic acid] | <2.59 |  |  | 
O.O=BO[O-].[Na+] [Example G, Perborate.H2O] | <2.59 |  |  | 
O=C(O)c1ccccn1 [J, Picolinic acid] |  | 6.0 | 6.1 | 
OO [K, Hydrogen peroxide] |  | 4.6 | 6.1 | 
O=C(O)CN(CCN(CC(=O)O)CC(=O)O)CCN(CC(=O)O)CC(=O)O [L, Diethylenetriaminapentaacetic acid] |  | 5.9 | 6.0 | 
O=C([O-])[O-].O=C([O-])[O-].OO.OO.OO.[Na+].[Na+].[Na+].[Na+] [N, Percarbonate] |  |  |  | Bacterial no. (concentration of bacteria remaining after 60 minutes) [1]: 6.13 Log10cfu/ml
O=C([O-])[O-].O=C([O-])[O-].OO.OO.OO.[Na+].[Na+].[Na+].[Na+] [O, Percarbonate] |  |  |  | Bacterial no. (concentration of bacteria remaining after 60 minutes) [1]: 6.39 Log10cfu/ml
Perborate.4 H2O [Example H] | <2.59 |  |  | 
